Experimental findings from ChEMBL document CHEMBL5291721, “A preclinical secondary pharmacology resource illuminates target-adverse drug reaction associations of marketed drugs” (Nat Commun, 2023) are described below.

In experiment [1] the target is T1, Muscarinic acetylcholine receptor M1 (Homo sapiens, UniProt P11229).
T1 sequence (P11229 whole entry): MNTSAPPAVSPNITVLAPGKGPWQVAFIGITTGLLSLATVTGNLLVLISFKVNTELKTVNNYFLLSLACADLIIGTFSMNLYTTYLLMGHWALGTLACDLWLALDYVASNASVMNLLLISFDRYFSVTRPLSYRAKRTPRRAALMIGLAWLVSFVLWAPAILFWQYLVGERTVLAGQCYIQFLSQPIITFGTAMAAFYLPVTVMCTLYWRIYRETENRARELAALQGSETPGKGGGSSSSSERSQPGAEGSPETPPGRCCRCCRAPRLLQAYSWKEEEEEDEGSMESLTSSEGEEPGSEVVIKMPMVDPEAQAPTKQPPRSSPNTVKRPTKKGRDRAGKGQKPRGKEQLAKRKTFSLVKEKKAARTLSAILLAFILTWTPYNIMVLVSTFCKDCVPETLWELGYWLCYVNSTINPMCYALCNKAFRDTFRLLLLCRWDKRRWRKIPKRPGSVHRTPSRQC
Format: functional, cell-based.

For experiment [2], the target named is cGMP-inhibited 3',5'-cyclic phosphodiesterase 3A (Homo sapiens, UniProt Q14432). Format: functional.
Experiment [3] deals with T2, Alpha-1A adrenergic receptor (Homo sapiens, UniProt P35348).
T2 sequence (P35348 whole entry): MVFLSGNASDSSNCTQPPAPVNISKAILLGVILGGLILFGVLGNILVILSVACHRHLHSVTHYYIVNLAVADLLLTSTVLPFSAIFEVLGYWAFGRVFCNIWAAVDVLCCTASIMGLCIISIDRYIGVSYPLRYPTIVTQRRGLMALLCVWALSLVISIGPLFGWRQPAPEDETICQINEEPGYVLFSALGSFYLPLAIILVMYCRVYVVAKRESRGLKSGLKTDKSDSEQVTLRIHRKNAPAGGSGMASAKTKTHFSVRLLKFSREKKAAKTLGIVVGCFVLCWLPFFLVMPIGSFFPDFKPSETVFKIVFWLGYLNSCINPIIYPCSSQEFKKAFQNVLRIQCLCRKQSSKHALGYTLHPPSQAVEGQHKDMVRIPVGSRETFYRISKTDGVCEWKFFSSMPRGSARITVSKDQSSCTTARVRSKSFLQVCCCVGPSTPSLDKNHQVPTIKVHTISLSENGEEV
Format: functional, cell-based.

In a further experiment the target is T3, Glucocorticoid receptor (Homo sapiens, UniProt P04150).
T3 sequence (P04150 whole entry): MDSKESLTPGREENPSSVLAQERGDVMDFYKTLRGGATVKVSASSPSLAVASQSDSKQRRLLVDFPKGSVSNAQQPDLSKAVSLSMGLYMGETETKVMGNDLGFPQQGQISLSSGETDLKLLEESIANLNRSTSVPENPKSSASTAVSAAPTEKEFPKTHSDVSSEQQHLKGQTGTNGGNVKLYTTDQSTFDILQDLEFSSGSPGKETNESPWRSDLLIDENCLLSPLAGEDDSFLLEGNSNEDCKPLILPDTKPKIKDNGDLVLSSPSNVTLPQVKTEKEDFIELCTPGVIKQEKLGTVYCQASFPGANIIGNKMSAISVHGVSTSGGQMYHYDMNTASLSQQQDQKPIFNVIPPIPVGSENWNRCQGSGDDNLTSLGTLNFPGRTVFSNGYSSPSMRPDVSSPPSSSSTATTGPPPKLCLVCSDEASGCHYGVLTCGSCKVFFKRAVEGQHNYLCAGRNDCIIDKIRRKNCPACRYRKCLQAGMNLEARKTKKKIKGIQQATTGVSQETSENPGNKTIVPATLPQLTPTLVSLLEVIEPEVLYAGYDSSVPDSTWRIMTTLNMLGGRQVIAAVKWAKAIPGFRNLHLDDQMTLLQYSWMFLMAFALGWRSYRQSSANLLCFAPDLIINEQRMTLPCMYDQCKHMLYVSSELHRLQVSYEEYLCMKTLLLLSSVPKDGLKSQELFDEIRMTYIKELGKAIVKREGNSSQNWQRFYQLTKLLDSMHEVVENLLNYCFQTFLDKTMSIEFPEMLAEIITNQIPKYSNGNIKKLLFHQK

In experiment [4] the target is Gamma-aminobutyric acid receptor subunit alpha-1 (Rattus norvegicus, UniProt P62813).
Another experiment addresses T4, Endothelin-1 receptor (Homo sapiens, UniProt P25101).
T4 sequence (P25101 whole entry): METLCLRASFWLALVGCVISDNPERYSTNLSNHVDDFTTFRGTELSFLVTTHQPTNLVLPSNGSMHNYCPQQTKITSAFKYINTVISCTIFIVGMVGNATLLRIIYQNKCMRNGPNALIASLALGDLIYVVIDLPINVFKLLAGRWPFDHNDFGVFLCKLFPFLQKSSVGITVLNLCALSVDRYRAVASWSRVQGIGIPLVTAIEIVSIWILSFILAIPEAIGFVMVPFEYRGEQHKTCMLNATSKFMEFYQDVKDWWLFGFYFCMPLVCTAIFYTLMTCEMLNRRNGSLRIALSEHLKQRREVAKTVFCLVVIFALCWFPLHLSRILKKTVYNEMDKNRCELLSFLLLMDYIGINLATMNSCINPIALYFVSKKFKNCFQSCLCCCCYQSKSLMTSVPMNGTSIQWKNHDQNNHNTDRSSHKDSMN

Experiment [5] concerns the target T5, Muscarinic acetylcholine receptor M2 (Homo sapiens, UniProt P08172).
T5 sequence (P08172 whole entry): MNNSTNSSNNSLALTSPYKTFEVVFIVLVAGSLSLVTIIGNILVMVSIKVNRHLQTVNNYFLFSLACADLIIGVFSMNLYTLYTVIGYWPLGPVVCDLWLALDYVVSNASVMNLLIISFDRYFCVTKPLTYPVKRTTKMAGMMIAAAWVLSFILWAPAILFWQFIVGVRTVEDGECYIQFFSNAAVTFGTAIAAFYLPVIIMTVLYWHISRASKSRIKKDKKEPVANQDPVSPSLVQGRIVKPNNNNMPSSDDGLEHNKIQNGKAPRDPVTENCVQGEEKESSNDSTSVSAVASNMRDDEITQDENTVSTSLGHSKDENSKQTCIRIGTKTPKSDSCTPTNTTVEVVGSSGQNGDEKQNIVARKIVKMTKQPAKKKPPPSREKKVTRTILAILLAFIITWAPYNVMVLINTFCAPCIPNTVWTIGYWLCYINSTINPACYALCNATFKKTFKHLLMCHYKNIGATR
Format: functional, cell-based.

The target of another experiment is Cannabinoid receptor 1 (Homo sapiens, UniProt P21554). Type of experiment: functional, cell-based.
For experiment [6], the target named is T2, Alpha-1A adrenergic receptor. Type of experiment: functional, cell-based. This is another data set of the same source.
In the next experiment the target is Vasopressin V1a receptor (Homo sapiens, UniProt P37288).
Further: assay procedure not described here.

Chain of Cannabinoid receptor 1 (P21554 whole entry): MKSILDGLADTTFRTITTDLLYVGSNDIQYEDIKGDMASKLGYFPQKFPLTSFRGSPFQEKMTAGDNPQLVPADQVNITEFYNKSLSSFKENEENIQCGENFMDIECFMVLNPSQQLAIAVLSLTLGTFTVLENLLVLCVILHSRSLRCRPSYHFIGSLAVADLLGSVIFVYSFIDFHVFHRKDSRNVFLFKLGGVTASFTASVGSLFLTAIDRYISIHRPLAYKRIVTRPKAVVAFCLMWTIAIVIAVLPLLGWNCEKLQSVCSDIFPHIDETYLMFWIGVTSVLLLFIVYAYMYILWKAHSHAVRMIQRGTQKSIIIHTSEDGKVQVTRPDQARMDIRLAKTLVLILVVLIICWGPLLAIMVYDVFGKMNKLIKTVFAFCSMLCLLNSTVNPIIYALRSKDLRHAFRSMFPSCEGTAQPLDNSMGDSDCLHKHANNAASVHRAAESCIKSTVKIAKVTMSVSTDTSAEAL
Chain of cGMP-inhibited 3',5'-cyclic phosphodiesterase 3A (Q14432 whole entry): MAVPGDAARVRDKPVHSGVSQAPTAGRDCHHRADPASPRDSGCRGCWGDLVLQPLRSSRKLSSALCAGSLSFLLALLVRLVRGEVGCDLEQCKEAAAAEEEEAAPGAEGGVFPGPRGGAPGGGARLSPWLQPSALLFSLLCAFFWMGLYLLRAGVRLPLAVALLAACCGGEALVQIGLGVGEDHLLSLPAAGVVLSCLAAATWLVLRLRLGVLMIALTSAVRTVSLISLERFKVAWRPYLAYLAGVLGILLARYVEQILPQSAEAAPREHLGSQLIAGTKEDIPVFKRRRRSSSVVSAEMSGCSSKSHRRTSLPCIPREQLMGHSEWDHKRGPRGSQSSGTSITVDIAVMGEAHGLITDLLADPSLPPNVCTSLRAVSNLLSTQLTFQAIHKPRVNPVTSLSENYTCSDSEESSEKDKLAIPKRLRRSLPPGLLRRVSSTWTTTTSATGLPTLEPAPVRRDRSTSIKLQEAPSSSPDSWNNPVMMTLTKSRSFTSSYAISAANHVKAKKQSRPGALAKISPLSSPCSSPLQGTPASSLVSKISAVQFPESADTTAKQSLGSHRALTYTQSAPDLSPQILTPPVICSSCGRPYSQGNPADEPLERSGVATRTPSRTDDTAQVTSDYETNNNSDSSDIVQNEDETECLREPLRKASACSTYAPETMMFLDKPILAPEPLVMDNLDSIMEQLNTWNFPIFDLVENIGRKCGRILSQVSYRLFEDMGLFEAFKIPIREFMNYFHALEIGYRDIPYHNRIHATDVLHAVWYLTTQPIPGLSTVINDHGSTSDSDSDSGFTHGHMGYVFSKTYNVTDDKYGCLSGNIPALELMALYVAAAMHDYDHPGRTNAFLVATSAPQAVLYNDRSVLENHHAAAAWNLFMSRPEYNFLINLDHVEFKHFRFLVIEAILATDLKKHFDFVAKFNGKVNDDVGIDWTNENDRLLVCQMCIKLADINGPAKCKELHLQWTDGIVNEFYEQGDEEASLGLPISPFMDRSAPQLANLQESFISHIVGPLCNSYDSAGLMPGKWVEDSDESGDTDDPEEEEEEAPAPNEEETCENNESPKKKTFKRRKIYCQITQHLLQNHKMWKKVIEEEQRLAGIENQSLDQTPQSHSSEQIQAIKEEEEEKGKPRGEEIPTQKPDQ
Chain of Gamma-aminobutyric acid receptor subunit alpha-1 (P62813 whole entry): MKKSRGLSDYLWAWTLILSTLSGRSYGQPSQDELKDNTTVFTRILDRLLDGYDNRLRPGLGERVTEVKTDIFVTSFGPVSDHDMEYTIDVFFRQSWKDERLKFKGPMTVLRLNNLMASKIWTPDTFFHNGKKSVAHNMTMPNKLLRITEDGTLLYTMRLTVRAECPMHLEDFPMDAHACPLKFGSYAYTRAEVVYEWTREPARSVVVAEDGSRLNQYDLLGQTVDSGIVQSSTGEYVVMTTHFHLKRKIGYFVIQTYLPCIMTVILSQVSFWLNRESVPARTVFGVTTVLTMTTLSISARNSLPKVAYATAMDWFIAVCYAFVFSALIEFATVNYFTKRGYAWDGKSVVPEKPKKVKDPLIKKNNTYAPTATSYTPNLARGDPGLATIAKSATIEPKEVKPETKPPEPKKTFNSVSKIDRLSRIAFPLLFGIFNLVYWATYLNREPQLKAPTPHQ
Chain of Vasopressin V1a receptor (P37288 whole entry): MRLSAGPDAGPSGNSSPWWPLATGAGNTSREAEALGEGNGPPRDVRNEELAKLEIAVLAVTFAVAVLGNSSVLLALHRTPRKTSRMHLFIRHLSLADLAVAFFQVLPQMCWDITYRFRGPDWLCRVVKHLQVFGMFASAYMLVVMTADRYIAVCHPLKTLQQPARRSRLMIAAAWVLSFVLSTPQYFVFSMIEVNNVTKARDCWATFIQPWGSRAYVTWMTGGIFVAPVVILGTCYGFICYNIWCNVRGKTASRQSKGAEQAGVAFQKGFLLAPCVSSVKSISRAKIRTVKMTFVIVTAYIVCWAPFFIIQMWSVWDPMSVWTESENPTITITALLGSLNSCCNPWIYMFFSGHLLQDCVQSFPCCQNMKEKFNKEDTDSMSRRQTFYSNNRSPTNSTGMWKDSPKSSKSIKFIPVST

With `OC[C@H]1NC[C@H](O)[C@@H](O)[C@H]1O`, the concentration at half-maximal activity (AC50) in experiment [1], in experiment [2] and in experiment [3] was above 30 µM each time.

Take `CCOC(=O)[C@H](CCc1ccccc1)N[C@@H](C)C(=O)N1Cc2ccccc2C[C@H]1C(=O)O`: the AC50 (usually the concentration at which the activity in the assay is half-maximal) on Glucocorticoid receptor is above 30 µM; in experiment [4], above 10 µM; on Endothelin-1 receptor it was above 30 µM; in experiment [5] it was above 10 µM; on Cannabinoid receptor 1, above 30 µM; in experiment [6] it was above 30 µM. Also, the AC50 on Vasopressin V1a receptor is above 10 µM; in experiment [2] it was above 30 µM; in experiment [3], above 30 µM.

On to `CC#CC(=O)N1CCC[C@H]1c1nc(-c2ccc(C(=O)Nc3ccccn3)cc2)c2c(N)nccn12` [ACALABRUTINIB], for which the AC50 in [1], in experiment [2] and in [3] was above 30 µM in each case.

For `C=CCOc1ccc(CC(=O)O)cc1Cl` [ALCLOFENAC], the AC50 in experiment [1], in experiment [2] and in experiment [3] was above 30 µM throughout.

Turning to `CN(C)CCC=C1c2ccccc2CCc2ccccc21` [AMITRIPTYLINE], the half-maximal activity concentration (AC50) at Glucocorticoid receptor is above 30 µM; in [4], above 10 µM; on Endothelin-1 receptor, above 30 µM; at Cannabinoid receptor 1, above 30 µM; in experiment [6], above 30 µM; at Vasopressin V1a receptor it was above 30 µM. For the same molecule, the AC50 in experiment [2] was above 30 µM.

Consider `CC(=O)Oc1ccccc1C(=O)O` [ASPIRIN], for which the AC50 at Glucocorticoid receptor is above 30 µM; in [4], above 10 µM; at Endothelin-1 receptor, above 30 µM; in experiment [5], above 30 µM; at Cannabinoid receptor 1, above 30 µM; in experiment [6] it was above 30 µM. The AC50 (at Vasopressin V1a receptor; in [2]; in [3]) was above 30 µM in each case.

Regarding `NC(=O)C1(N2CCCCC2)CCN(CCCN2c3ccccc3CCc3ccccc32)CC1` [CARPIPRAMINE], the results for the AC50 in experiment [1] and in experiment [2] were 22 µM and above 30 µM, respectively.

`CN1CCN(C(c2ccccc2)c2ccc(Cl)cc2)CC1` (stereo unspecified) [CHLORCYCLIZINE]: the AC50 in experiment [1] is above 30 µM; in experiment [2], above 30 µM; in experiment [3], 4.86 µM.

In the case of `CN(C)CCCC1(c2ccc(F)cc2)OCc2cc(C#N)ccc21` (stereo unspecified) [CITALOPRAM], the AC50 at Glucocorticoid receptor is above 30 µM; in [4], above 10 µM; on Endothelin-1 receptor, above 30 µM; on Cannabinoid receptor 1 it was above 30 µM; on Vasopressin V1a receptor, above 10 µM; in experiment [2], above 30 µM.

With `CC(C)/N=c1\cc2n(-c3ccc(Cl)cc3)c3ccccc3nc-2cc1Nc1ccc(Cl)cc1` [CLOFAZIMINE], the AC50 on Glucocorticoid receptor is 0.034 µM; in [4], 29 µM; on Endothelin-1 receptor, above 30 µM; in experiment [5], above 30 µM; on Cannabinoid receptor 1 it was above 30 µM; in [6], above 30 µM. Besides, on Vasopressin V1a receptor, the AC50 was above 30 µM.

On to `CCCCCCCCCCCCCCCC(=O)OC[C@H](COP(=O)([O-])OCC[N+](C)(C)C)OC(=O)CCCCCCCCCCCCCCC` [COLFOSCERIL PALMITATE], for which the AC50 in experiment [1], in [2] and in experiment [3] was above 30 µM each time.

Take `CC(C)Nc1cccnc1N1CCN(C(=O)c2cc3cc(NS(C)(=O)=O)ccc3[nH]2)CC1` [DELAVIRDINE]: the AC50 in experiment [1], in experiment [2] and in experiment [3] was above 30 µM each time.

Take `C[C@@H](CN1CC(=O)NC(=O)C1)N1CC(=O)NC(=O)C1` [DEXRAZOXANE]: the AC50 in experiment [1], in [2] and in experiment [3] was above 30 µM in each case.

Take `C[C@]12CC[C@@H]3c4ccc(OC(=O)N(CCCl)CCCl)cc4CC[C@H]3[C@@H]1CC[C@@H]2OP(=O)(O)O` [ESTRAMUSTINE PHOSPHATE]: the AC50 in experiment [1], in experiment [2] and in experiment [3] was above 30 µM throughout.

For `O=c1[nH]c2ccccc2n1CCN1CCN(c2cccc(C(F)(F)F)c2)CC1` [FLIBANSERIN], the AC50 in [1] is 10.1 µM; in [2], above 30 µM; in experiment [3], 0.391 µM.

As for `O=c1[nH]cc(F)c(=O)[nH]1` [FLUOROURACIL], the AC50 (at Glucocorticoid receptor; at Endothelin-1 receptor; on Vasopressin V1a receptor; in experiment [2]; in [3]) was above 30 µM throughout.

In the case of `NCC1(CC(=O)O)CCCCC1` [GABAPENTIN], the concentration at half-maximal activity (AC50) at Glucocorticoid receptor was above 30 µM; in experiment [4], above 10 µM; at Endothelin-1 receptor, above 30 µM; in [5], above 30 µM; at Cannabinoid receptor 1, above 30 µM; in [6] it was above 30 µM. In addition, the AC50 (on Vasopressin V1a receptor; in experiment [2]; in experiment [3]) was above 30 µM throughout.

With `O=C(O)[C@H](O)[C@@H](O)[C@H](O)[C@H](O)CO` [GLUCONIC ACID], the AC50 in [1], in [2] and in experiment [3] was above 30 µM in each case.

For `N=C(N)NCC1COc2ccccc2O1` (stereo unspecified) [GUANOXAN], the AC50 in experiment [1] was above 30 µM; in [2], above 30 µM; in [3], 21.3 µM.

Take `N#Cc1ccnc(N2C(=O)CC[C@H]2C(=O)N(c2cncc(F)c2)[C@H](C(=O)NC2CC(F)(F)C2)c2ccccc2Cl)c1` [IVOSIDENIB]: the AC50 in experiment [1], in experiment [2] and in [3] was above 30 µM each time.

`CCCCCCO[C@@H](C)c1cccc(-c2csc(NC(=O)c3cc(Cl)c(/C=C(\C)C(=O)O)c(Cl)c3)n2)c1OC` [LUSUTROMBOPAG]: the AC50 in experiment [1] is above 30 µM; in experiment [2], above 30 µM; in [3], 13.5 µM.

In the case of `Cc1cc(C)cc(OCC2CNC(=O)O2)c1` (stereo unspecified) [METAXALONE], the AC50 in [1], in experiment [2] and in experiment [3] was above 30 µM each time.
